The record followed here is US5399697A, “N,N',N'-trisubstituted-5-bisaminomethylene-1,3-dioxane-4,6-dione inhibitors of acyl-CoA:cholesterol-acyl transferase” (American Home Products Corporation, priority 1993, dated 1995).

The structures appear in SMILES notation.

The test system of one assay is cholesterol absorption. As to the kind of experiment: 14C-cholesterol absorption in normal rats (oral gavage). To be noted: Rattus norvegicus; for ED50: normal fed rats. Type of assay: in vivo. As for the experimental part: Representative compounds were further tested in vivo to establish the percent inhibition of cholesterol absorption. In this study, normal rats were dosed (oral gavage) with ^14 C-cholesterol plus the test compound. Blood samples taken at six hours and/or intermittently up to twenty-four hours were analyzed and the percent inhibition of cholesterol absorption was calculated.

The test system of assay [1] is acyl-coenzyme A: cholesterol acyltransferase. As to the kind of experiment: Inhibition of ACAT / intracellular cholesterol esterification in vitro (procedure of Ross et al.). Type of assay: cell-based. To be noted: for IC50: read-out: IC50.
The subject of another assay is plasma cholesterol. Put plainly: Plasma cholesterol in cholesterol-cholic acid fed rats. The format is in vivo. To be noted: Rattus norvegicus, oral gavage; for change in vivo at 20 mg/kg / change in vivo at 40 mg/kg / change in vivo at 100 mg/kg: read-out: % Decrease in Plasma Cholesterol; for ED50: fifty percent reduction of plasma cholesterol. Here is the method:
In addition, representative compounds were studied in vivo in cholesterol-cholic acid fed rats to determine the percent decrease of cholesterol in their plasma. This study involves rats which are, prior to testing, trained for one week to eat over a four hour time period each day. Upon initiation of the experiment, the rats diet is supplemented with 1.0 percent cholesterol and 0.25 percent cholic acid. The rats are dosed with the test compound by oral gavage just prior to adjust following the four hour feeding period. This is repeated for four days. On the fifth day, the rats are sacrificed and the total plasma cholesterol content is determined. The percent decrease in elevated plasma cholesterol levels is calculated in comparison with […].

Where [2] appears, read: normal rats, read-out: % Inhibition of Absorption.

Regarding `CC1(C)OC(=O)C(=C(Nc2cc(C(C)(C)C)c(O)c(C(C)(C)C)c2)Nc2cnc3ccccc3c2)C(=O)O1` [Compound 81, 5-[(3,5-Di-tert-butyl-4-hydroxy-phenylamino)-(quinolin-3-ylamino)-methylene]-2,2-dimethyl-[1,3]dioxane-4,6-dione], in the assay with cholesterol absorption (normal rats, 3 mg/kg, read-out: % Inhibition of Absorption), the change in vivo at 3 mg/kg was -90%. Moreover, in assay [1] (50 μM), the % Inhibition (usually the percentage by which the read-out fell short of the control) turned out to be 90%.

In the case of `COc1ccc(NC(=C2C(=O)OC(C)(C)OC2=O)N(Cc2ccc(CC(C)C)cc2)C2CCN(CCc3ccccc3)CC2)c(OC)c1` [Compound 8, 5-[[(2,4-Dimethoxyphenyl)amino][[[4-(2-methylpropyl)phenyl]methyl][1-(phenylethyl)-4-piperidinyl]amino]methylene]-2,2-dimethyl-1,3-dioxane-4,6-dione], the change in vivo at 10 mg/kg in the assay with cholesterol absorption (setting [2]) was -16%. In addition, the “% Inhibition” value in assay [1] (25 μM) was 85%. In addition, in assay [1], the IC50 (as a rule, the midpoint of a concentration-inhibition curve) turned out to be 5600 nM.

Take `CCCCCC(C)N(Cc1ccc(CC(C)(C)C)cc1)C(Nc1c(C)cc(N(C)C)cc1C)=C1C(=O)OC(C)(C)OC1=O` (centres unmarked) [Compound 33, 5-[[[2,6-Dimethyl-4-(dimethylamino)phenyl]amino][[[4-(2,2-dimethylpropyl)phenyl]methyl](1-methylhexyl)amino]methylene]-2,2-dimethyl-1,3-dioxane-4,6-dione]: in the assay with plasma cholesterol (96 h, four days), the change in vivo at 20 mg/kg is -30%. Besides, in the assay on cholesterol absorption (setting [2]), the change in vivo at 50 mg/kg is -86%. Further, in assay [1] (25 μM), the “% Inhibition” value is on record as 98%. In addition, the IC50 in assay [1] worked out at 380 nM.

Regarding `CCCCCC(C)N(Cc1ccc(CC(C)(C)C)cc1)C(Nc1ccc(N(C)C)cc1)=C1C(=O)OC(C)(C)OC1=O` (centres unmarked) [Compound 37], the change in vivo at 40 mg/kg in the assay with plasma cholesterol (96 h, four days) is -72%. Also, the median effective dose (ED50) (commonly the dose that gives a 50% effect, or the effect in half of the subjects) in the assay on plasma cholesterol is 18 mg/kg. Besides, the change in vivo at 50 mg/kg in the assay with cholesterol absorption (setting [2]) was -85%. Besides, the “% Inhibition” value in assay [1] (25 μM) came to 99%. The IC50 in assay [1] stood at 690 nM.

Regarding `CC(C)Cc1ccc(CN(C(Nc2ccc(N(C)C)cc2)=C2C(=O)OC(C)(C)OC2=O)C(C)CCCC(C)(C)O)cc1` (centres unmarked) [Compound 53], the change in vivo at 10 mg/kg with cholesterol absorption (setting [2]) is -50%. For the same compound, in assay [1] (25 μM), the “% Inhibition” value was 81%. Also, the IC50 in assay [1] was found to be 5200 nM.

In the case of `CCCCCC(C)N(Cc1ccc(CC(C)(C)C)cc1)C(Nc1ccc(N(C)C)cc1C)=C1C(=O)OC(C)(C)OC1=O` (centres unmarked) [Compound 47], the figures for the 50% effective dose (ED50) in the assay on plasma cholesterol and with cholesterol absorption were 16 mg/kg and 3 mg/kg, respectively. Further, the change in vivo at 10 mg/kg with cholesterol absorption (setting [2]) is -83%. Moreover, the “% Inhibition” value in assay [1] (25 μM) was 98%. Also, the IC50 in assay [1] is 260 nM.

Turning to `CCCCCCCN(Cc1ccc(C(C)(C)C)cc1)C(Nc1c(OC)cc(OC)cc1OC)=C1C(=O)OC(C)(C)OC1=O` [Compound 59, 5-[[[[4-(1,1-Dimethylethyl)phenyl]methyl]heptylamino][(2,4,6-trimethoxyphenyl)amino]-methylene]-2,2-dimethyl-1,3-dioxane-4,6-dione], the change in vivo at 200 mg/kg with cholesterol absorption (setting [2]) was -21%. In addition, the “% Inhibition” value in assay [1] (25 μM) turned out to be 94%. For the same compound, the concentration for half-maximal inhibition (IC50) in assay [1] worked out at 700 nM.

Regarding `COc1ccc(NC(=C2C(=O)OC(C)(C)OC2=O)N(Cc2ccc(CC(C)C)cc2)C(C)CCCC(C)(C)O)c(OC)c1` (centres unmarked) [Compound 52, 5-[[(2,4-Dimethoxyphenyl)amino][(5-hydroxy-1,5-dimethylhexyl)[[4-(2-methylpropyl)phenyl]-methyl]amino]methylene]-2,2-dimethyl-1,3-dioxane-2,4-dione], the change in vivo at 10 mg/kg in the assay on cholesterol absorption (setting [2]) is -29%. Moreover, the “% Inhibition” value in assay [1] (25 μM) is 89%. Besides, the IC50 in assay [1] was 5600 nM.

Regarding `CCCCCCCN(Cc1ccc(CC(C)(C)C)cc1)C(Nc1ccc(OC)cc1OC)=C1C(=O)OC(C)(C)OC1=O` [Compound 48, 5-[[(2,4-Dimethoxyphenyl)amino][[[4-(2,2-dimethylpropyl)phenyl]methyl]heptylamino]-methylene]-2,2-dimethyl-1,3-dioxane-4,6-dione], the change in vivo at 100 mg/kg in the assay with plasma cholesterol (96 h, four days) was -60%. In addition, the ED50 with plasma cholesterol turned out to be 25 mg/kg; in the assay on cholesterol absorption it was 11 mg/kg. Also, in the assay on cholesterol absorption (setting [2]), the change in vivo at 200 mg/kg was -84%. For the same compound, the “% Inhibition” value in assay [1] (25 μM) was found to be 94%. For the same compound, the IC50 in assay [1] turned out to be 2900 nM.

As to `CCCCCC(C)N(Cc1ccc(CC(C)C)cc1)C(Nc1ccc(OC)cc1OC)=C1C(=O)OC(C)(C)OC1=O` (centres unmarked) [Compound 32, 5-[[(2,4-Dimethoxyphenyl)amino][(1-methylhexyl)[[4-(2-methylpropyl)phenyl]methyl]amino]-methylene]-2,2-dimethyl-1,3-dioxane-4,6-dione], the change in vivo at 60 mg/kg in the assay with plasma cholesterol (96 h, heading: % Decrease in Plasma Cholesterol, four days, 60 mg/kg) was -97%. In addition, the figures for the ED50 with plasma cholesterol and with cholesterol absorption were 17 mg/kg and 4 mg/kg, respectively. Further, the change in vivo at 20 mg/kg in the assay with cholesterol absorption (normal rats, 20 mg/kg, read-out: % Inhibition of Absorption) was -79%. In assay [1] (25 μM), the “% Inhibition” value is reported as 98%. Moreover, the IC50 in assay [1] was 240 nM.

Turning to `CCCCCC(C)N(Cc1ccc(CC(C)C)cc1)C(Nc1ccc(N(C)C)cc1C)=C1C(=O)OC(C)(C)OC1=O` (centres unmarked) [Compound 46], the change in vivo at 20 mg/kg in the assay on plasma cholesterol (96 h, four days) is -70%. In addition, the values for the ED50 with plasma cholesterol and in the assay on cholesterol absorption were 8 mg/kg and 2 mg/kg, respectively. Also, in the assay with cholesterol absorption (setting [2]), the change in vivo at 10 mg/kg is -82%. The “% Inhibition” value in assay [1] (25 μM) is given as 98%. Further, the IC50 in assay [1] was found to be 350 nM.

On to `CCCCCC(C)N(Cc1ccc(OCCC(C)C)cc1)C(Nc1ccc(N(C)C)cc1)=C1C(=O)OC(C)(C)OC1=O` (centres unmarked) [Compound 38, 5-[[[4-(Dimethylamino)phenyl]amino][[[4-(3-methylbutoxy)phenyl]methyl](1-methylhexylhexyl)amino]methylene]-2,2-dimethyl-1,3-dioxane-4,6-dione], for which the change in vivo at 40 mg/kg in the assay on plasma cholesterol (96 h, four days) is -58%. Also, the “% Inhibition” value in assay [1] (25 μM) is reported as 99%. Moreover, the half-maximal inhibitory concentration (IC50) in assay [1] is 210 nM.

Regarding `CCCCCC(C)N(Cc1ccc(C(C)(C)C)cc1)C(Nc1ccc(OC)cc1OC)=C1C(=O)OC(C)(C)OC1=O` (centres unmarked) [Compound 4, 5-[[(2,4-Dimethoxophenyl)amino][[[4-(1,1-dimethylethyl)phenyl]methyl](1-methylhexyl)amino]-methylene]-2,2-dimethyl-1,3-dioxane-4,6-dione], the change in vivo at 100 mg/kg with plasma cholesterol (96 h, four days) was -98%. Also, the ED50 in the assay on plasma cholesterol was determined as 64 mg/kg; with cholesterol absorption it was 10 mg/kg. Further, the change in vivo at 200 mg/kg in the assay on cholesterol absorption (setting [2]) is -93%. In assay [1] (25 μM), the “% Inhibition” value was determined as 99%. Besides, the IC50 in assay [1] stood at 260 nM.

For the compound `CCCCCC(C)N(Cc1ccc(OCCC(C)C)cc1)C(Nc1ccc(OC)cc1OC)=C1C(=O)OC(C)(C)OC1=O` (centres unmarked) [Compound 35], in the assay with plasma cholesterol (96 h, four days), the change in vivo at 40 mg/kg was -55%. The “% Inhibition” value in assay [1] (25 μM) came out at 99%. Further, in assay [1], the IC50 came out at 540 nM.

On to `CCCCCCOc1ccc(NC(=C2C(=O)OC(C)(C)OC2=O)N(Cc2ccc(CC(C)C)cc2)C(C)CCCCC)cc1` (centres unmarked) [Compound 43, 5-[[[4-(Hexyloxy)phenyl]amino][(1-methylhexyl)[[4-(2methylpropyl)phenyl]methyl]amino]-methylene]-2,2-dimethyl-1,3-dioxane-4,6,-dione], for which the change in vivo at 40 mg/kg in the assay with plasma cholesterol (96 h, four days) was -67%. Moreover, the change in vivo at 10 mg/kg with cholesterol absorption (setting [2]) is -52%. In addition, in assay [1] (25 μM), the “% Inhibition” value amounted to 97%. Also, in assay [1], the IC50 turned out to be 410 nM.

Turning to `CCCCCCCN(Cc1ccc(C(C)(C)C)cc1)C(Nc1ccc(OC)cc1OC)=C1C(=O)OC(C)(C)OC1=O` [Compound 2], the values for the ED50 in the assay on plasma cholesterol and in the assay with cholesterol absorption were 99 mg/kg and 44 mg/kg, respectively. Besides, in the assay with cholesterol absorption (setting [2]), the change in vivo at 200 mg/kg is -88%. Besides, the “% Inhibition” value in assay [1] (50 μM) is listed as 85%. Also, the IC50 in assay [1] turned out to be 900 nM.

Turning to `CCCCCC(C)N(Cc1ccc(C(C)(C)C)cc1)C(Nc1ccc(N(C)C)cc1)=C1C(=O)OC(C)(C)OC1=O` (centres unmarked) [Compound 21, 5-[[[4-(Dimethylamino)phenyl]amino][[[4-(1,1-dimethylethyl)phenyl]methyl](1-methylhexyl)-amino]methylene]-2,2-dimethyl-1,3-dioxane-4,6-dione], in the assay on plasma cholesterol (96 h, four days), the change in vivo at 100 mg/kg is -78%. In addition, the change in vivo at 75 mg/kg in the assay with cholesterol absorption (normal rats, 75 mg/kg, read-out: % Inhibition of Absorption) is -83%. In addition, in assay [1] (25 μM), the “% Inhibition” value is 98%. For the same compound, in assay [1], the IC50 was found to be 250 nM.

For `COc1ccc(NC(=C2C(=O)OC(C)(C)OC2=O)N(Cc2ccc(CC(C)C)cc2)C(C)CCCC(C)C)c(OC)c1` (centres unmarked) [Compound 39, 5-[[(2,4-Dimethoxyphenyl)amino][(1,5-dimethylhexyl)[[4-(2-methylpropyl)phenyl]methyl]amino]methylene]-2,2-dimethyl-1,3-dioxane-4,6-dione], in the assay with plasma cholesterol (96 h, four days), the change in vivo at 40 mg/kg was -65%. Also, in assay [1] (25 μM), the “% Inhibition” value came to 99%. Further, in assay [1], the IC50 was 370 nM.

Consider `CCCCCCC(CCCCCC)N(Cc1ccc(CC(C)C)cc1)C(Nc1ccc(N(C)C)cc1)=C1C(=O)OC(C)(C)OC1=O` [Compound 36], for which, in the assay on plasma cholesterol (96 h, four days), the change in vivo at 20 mg/kg was -62%. Moreover, in assay [1] (26 μM), the “% Inhibition” value was found to be 99%. In assay [1], the IC50 was 44 nM.

On to `CCCCOc1ccc(NC(=C2C(=O)OC(C)(C)OC2=O)N(Cc2ccc(C(C)(C)C)cc2)C(C)CCCC(C)C)cc1` (centres unmarked) [Compound 28, 5-[[(4-Butoxyphenyl)amino][[[4-(1,1-dimethylethyl)phenyl]methyl](1,5-dimethylhexyl)amino]-methylene]-2,2-dimethyl-1,3-dioxane-4,6-dione], for which, in the assay with plasma cholesterol (96 h, four days), the change in vivo at 40 mg/kg was -15%. In assay [1] (25 μM), the “% Inhibition” value is 98%. For the same compound, in assay [1], the half-maximal inhibitory concentration (IC50) came to 690 nM.
